Test results published in PubChem BioAssay AID1361 (SRMLSC, 2008).
The source made the active and inactive calls. How the calls were made is not given here.

Experiment: blockers of mitochondrial fusion, WT vs mutant – cell-based, chemical genetic, wild-type and mutant, confirmation (AID 1361)
Settings: Cell-based mitochondrial fusion phenotype, imaging
[1] = mutant cells, measured here: mutant cell line IC50

SMILES | IC50 (WT cells) | IC50 [1] [µM]
Cc1ccc(NC(=O)C2(c3ccccc3)CC2(Cl)Cl)cc1C (stereo not drawn) | > 25 µM (inactive) | > 25
CCCCC(=O)NC(=S)Nc1ccccc1N1CCCCC1 | 19.8 µM | > 25
FC(F)(F)c1cnc(N2CCC(=NOCc3ccc(Cl)cc3)CC2)c(Cl)c1 | 13.7 µM | > 25
COc1ccc(Cc2nn[nH]n2)cc1 | > 25 µM (inactive) | > 25
CCN1CCN(CCNC(=O)c2ccc(/C=C3/Sc4ccccc4N(Cc4ccccc4C)C3=O)cc2)CC1 | 15.5 µM | > 25
C(=N\Nc1nc(Nc2ccccc2)nc(N2CCCCC2)n1)/c1ccco1 | 22.5 µM | > 25
COC(=O)c1ccc(C2C3=C(Nc4nnnn42)c2ccccc2OC3)cc1 (stereo not drawn) | > 25 µM (inactive) | > 25
Cc1cccc(-c2noc(CN(C(=O)CCc3ccccc3)C(C)C)n2)c1 | > 25 µM (inactive) | 24.5
CCn1c(C(=O)N2CCc3ccccc3C2)cc2oc3ccccc3c21 | 8.84 µM | > 25
c1ccc(N(c2ccccc2)c2nc(N3CCCC3)nc(-n3ccnc3)n2)cc1 | 15.5 µM | > 25
O=[N+]([O-])c1cccnc1N1CCC(c2cc(-c3ccc(Cl)cc3Cl)n[nH]2)CC1 | 6.53 µM | > 25
Cc1nn(-c2ccccc2)c2sc(C(=O)N(Cc3ccco3)C(C)C(=O)NC(C)(C)C)cc12 (stereo not drawn) | 7.45 µM | 19.6
CC(C)Cc1nc(N2CCN(C(=O)c3ccccc3)CC2)c(C#N)c2c1CCC2 | 16.3 µM | > 25
O=C(Nc1nnc(C2CC2)o1)c1ccc(S(=O)(=O)N2CCCc3ccccc32)cc1 | 13.5 µM | 20.8
O=C(Nc1ccc(F)cc1)c1ccccc1Oc1ccc(C(F)(F)F)cc1[N+](=O)[O-] | 17.5 µM | > 25
Fc1ccc(N2N=C(c3cccs3)CC2c2ccco2)c(F)c1 (stereo not drawn) | 15.8 µM | 22.3
CC1CC(C)CN(c2ncnc3c2cnn3Cc2ccc(Cl)cc2)C1 (stereo not drawn) | 12.8 µM | 17.9
CCSc1nnc(NC(=O)COc2ccc3ccccc3c2)s1 | > 25 µM (inactive) | > 25
CCN(CC)c1nc(-c2ccccc2)ncc1S(=O)(=O)c1ccc(C)cc1 | 11 µM | > 25
COc1ccc(NC(=S)NNC(=O)COc2ccc(Cl)cc2Cl)cc1 | 19.5 µM | > 25

SMILES | IC50 (WT cells) | IC50 [1] [µM]
Cc1cc2ncn(/N=C/c3cccnc3)c2cc1C | > 25 µM (inactive) | > 25
Nc1ccc2nn(-c3ccccc3)nc2c1 | > 25 µM (inactive) | > 25
Cc1[nH]c2ccc(F)cc2c1CCN(Cc1ccco1)C(=S)NC(C)(C)C | 12.5 µM | > 25
Nc1[nH]n2c(=O)c3c(nc2c1N=Nc1ccccc1)CCCC3 | > 25 µM (inactive) | > 25
COc1cccc(N2C(=O)C(c3ccccc3)=C(c3nc4ccccc4s3)C2NC(C)=O)c1 (stereo not drawn) | > 25 µM (inactive) | > 25
C=CCC(C(=O)OC)(C(=O)OC)c1ccc([N+](=O)[O-])cn1 | > 25 µM (inactive) | > 25
COc1cc(/C=C2\SC(=O)N(c3ccccc3Cl)C2=O)cc([N+](=O)[O-])c1O | 13.6 µM | 20.8
Cc1ccc(C(=O)Nc2nc(-c3ccccc3)c(-c3ccccc3)o2)cc1 | 4.97 µM | 9.35
CC(NC(=O)/C(=C/c1ccc(OC(F)F)cc1)c1ccccc1)c1ccccc1 (stereo not drawn) | 11.5 µM | > 25
NC(=O)c1ccc(NC(=O)COC(=O)c2c3c(nc4ccccc24)/C(=C\c2ccc4c(c2)OCO4)CCC3)cc1 | 8.77 µM | > 25
CN(C)c1ccc(S(=O)(=O)c2ccc(Cl)cc2)cc1 | > 25 µM (inactive) | > 25
CN(CC(=O)Nc1ccccc1Sc1ccccc1)C1CCCCC1 | 23.2 µM | > 25
CN(C)S(=O)(=O)c1cccc(C(=O)NCC2CCCO2)c1 (stereo not drawn) | > 25 µM (inactive) | > 25
Cc1cccc2nc(-c3ccccc3)nc(N3CCC(O)(c4ccc(Cl)cc4)CC3)c12 | 4.04 µM | > 25
O=S(=O)(NCCOCCNS(=O)(=O)c1ccccc1)c1ccccc1 | > 25 µM (inactive) | > 25
CCOC(=O)N1CCN(S(=O)(=O)c2ccc(C)cc2)C1c1ccc(OC)cc1 (stereo not drawn) | > 25 µM (inactive) | > 25
Cc1ccc(OCc2n[nH]c(=S)n2-c2ccccc2)cc1C | 24.4 µM | > 25
COc1ccccc1CNc1nc2nc(C)c(C)c(=O)n2[nH]1 | > 25 µM (inactive) | > 25
O=C(O)C1C2C=CC(C2)C1C(=O)Nc1ccc(C(=O)N2CCCCC2)cc1 (stereo not drawn) | > 25 µM (inactive) | > 25
CCOc1ccc(-c2nc(N)ncc2Oc2ccccc2Br)c(O)c1 | > 25 µM (inactive) | > 25

SMILES | IC50 (WT cells) | IC50 [1] [µM]
O=C1NC(=O)C(CCc2ccncc2)(Cc2cccc(Cl)c2Cl)C(=O)N1c1ccc(Br)cc1 (stereo not drawn) | 10.1 µM | > 25
COc1ccc(N2CCN(CCNC(=O)c3nnc(Cc4c(F)cccc4Cl)o3)CC2)cc1 | > 25 µM (inactive) | > 25
COc1cc(SC)ccc1C(=O)NCC1CCCO1 (stereo not drawn) | > 25 µM (inactive) | > 25
CN1CCC2(CC1)Nc1nc(SCc3ccc(Cl)cc3)nn1C1=C2CN(C)CC1 | > 25 µM (inactive) | > 25
Cc1ccc(C(C)C)cc1OCC(=O)N/N=C/c1ccc2c(c1)OCCO2 | 18.3 µM | > 25
O=C(N=C1SCC(=O)N1c1ccccc1Cl)c1ccccc1 | > 25 µM (inactive) | > 25
CCc1ccc(C2=CC(c3cc(Br)ccc3F)n3ncnc3N2)cc1 (stereo not drawn) | 23.7 µM | > 25
CCOc1ccccc1N1CCN(C(=O)Nc2ccc(Cl)c(Cl)c2)CC1 | 20.9 µM (inactive) | > 12.5
COc1cccc(CNC(=O)CNC(=S)N(Cc2ccccc2)Cc2ccccc2F)c1 | 23.1 µM | > 25
COc1ccc(O[C@H]2C=C[C@@H](c3ccccc3)O[C@@H]2COC(=O)CC/C(C)=N/O[C@@H](C)CN2CCCCc3nc(C)c(C)cc32)cc1 | 12.1 µM | > 25
CCCCCCc1nc2ccccc2c(=O)n1NC(=O)c1c(O)c2cccc3c2n(c1=O)CCC3 | 10.5 µM | > 25
COC(=O)C1=C(CSc2nc3ccccc3o2)NC(=O)NC1c1cc(C)ccc1C (stereo not drawn) | > 25 µM (inactive) | > 25
COc1cc(/C=N/n2cnnc2)ccc1OCc1ccccc1 | > 25 µM (inactive) | > 25
COc1cc(CNn2cn[nH]c2=S)cc(Br)c1OCc1ccccc1F | 19.7 µM | > 25
O=C(CSc1nc2cc(Cl)ccc2o1)NCCc1ccccc1 | > 25 µM (inactive) | > 25
COc1ccc(N/C(N)=N/c2nc(CSc3ccc(C)cc3)cc(=O)[nH]2)cc1 | > 25 µM (inactive) | > 25
CC[n+]1c(SC)ccc2cc(OC)ccc21 | 11.5 µM | > 25
COc1ccc(C2CC(c3ccc(Br)cc3)=NN2C(=O)c2cccnc2)cc1 (stereo not drawn) | 18.2 µM | > 25
O=c1c2ccccc2n(Cc2ccc(F)cc2)c(=O)n1C1CCCC1 | 17 µM | > 25
